Laboratory results as given in ChEMBL document CHEMBL4325929, “Discovery of Tetrahydropyridopyrimidines as Irreversible Covalent Inhibitors of KRAS-G12C with In Vivo Activity” (ACS Med Chem Lett, 2018).
Calls of active or inactive are those of the source. The calls are words filed in the database; no cut-off is given here.

Tests used:
GTPase KRas = GTPase KRas (Homo sapiens, UniProt P01116, G12C); assay: Inhibition of KRAS G12C mutant in human NCI-H358 cells assessed as reduction in ERK phosphorylation measured after 3 hrs by Western blot analysis; format: cell-based
[1] = test system: GTPase KRas (Homo sapiens), P01116 [G12C]; assay: Binding affinity to KRAS G12C mutant (unknown origin) assessed as covalent modification at 5 uM after 3 hrs by LC-MS analysis relative to control
[2] = test system: GTPase KRas (Homo sapiens), P01116 [G12C]; assay: Binding affinity to KRAS G12C mutant (unknown origin) assessed as covalent modification at 3 uM after 15 mins by LC-MS analysis relative to control
[3] = Plasma concentration in CD-1 mouse at 50 mg/kg, ip measured after 0.5 hrs; format: ADME, organism-based
[4] = Tmax in CD-1 mouse at 100 mg/kg, po; format: ADME, organism-based; conditions: in vivo
[5] = AUC (infinity) in CD-1 mouse at 100 mg/kg, po; format: ADME, organism-based; design: dose 100 mg/kg, time infinity, route oral; conditions: in vivo
[6] = Half life in CD-1 mouse at 3 mg/kg, iv; format: ADME, organism-based; conditions: in vivo
[7] = Plasma concentration in CD-1 mouse at 15 mg/kg, ip measured after 1 hr; format: ADME, organism-based
MIA PaCa-2 [8] = assay: Antitumor activity against human MIAPaCa2 cells xenografted in nude-Fox1nu mouse assessed as tumor regression at 30 to 100 mg/kg, ip administered once daily for 5 days; format: functional, organism-based
[9] = Toxicity in nude-Fox1nu mouse xenografted with human MIAPaCa2 cells assessed as body weight loss at 30 to 100 mg/kg, ip administered once daily for 17 days measured 2 times a week during compound dosing; format: organism-based; conditions: in vivo, 408 h
[10] = Toxicity in nude-Fox1nu mouse xenografted with human MIAPaCa2 cells assessed as adverse effect at 30 to 100 mg/kg, ip administered once daily for 17 days measured during compound dosing; format: organism-based; conditions: in vivo, 408 h
[11] = Cmax in CD-1 mouse at 100 mg/kg, po; format: ADME, organism-based; design: dose 100 mg/kg, route oral; conditions: in vivo
MIA PaCa-2 [12] = assay: Antitumor activity against human MIAPaCa2 cells xenografted in nude-Fox1nu mouse assessed as reduction in tumor volume at 30 to 100 mg/kg, ip administered once daily for 17 days measured three times a week during compound dosing; format: functional, organism-based
[13] = Plasma concentration in CD-1 mouse at 15 mg/kg, ip measured after 3 hrs; format: ADME, organism-based; conditions: in vivo, BLD = below limit of detection
MDR1 [14] = assay: Apparent permeability across basolateral to apical side in pig LLC-PK1 cells expressing MDR1 at 1 uM; format: ADME, cell-based, Sus scrofa
[15] = Oral bioavailability in CD-1 mouse at 100 mg/kg; format: ADME, organism-based; conditions: in vivo
[16] = Plasma concentration in CD-1 mouse at 15 mg/kg, ip measured after 0.5 hrs; format: ADME, organism-based
[17] = Volume of distribution at steady state in CD-1 mouse at 3 mg/kg, iv; format: ADME, organism-based; conditions: in vivo, read-out: Vdss
[18] = Plasma concentration in CD-1 mouse at 100 mg/kg, ip measured after 1 hr; format: ADME, organism-based
MDR1 [19] = assay: Apparent permeability across apical to basolateral side in pig LLC-PK1 cells expressing MDR1 at 1 uM; format: ADME, cell-based, Sus scrofa
[20] = Clearance in CD-1 mouse at 3 mg/kg, iv; format: ADME, organism-based; conditions: in vivo
[21] = Plasma concentration in CD-1 mouse at 50 mg/kg, ip measured after 1 hr; format: ADME, organism-based
[22] = Plasma concentration in CD-1 mouse at 100 mg/kg, ip measured after 6 hrs; format: ADME, organism-based
Mus musculus [23] = assay: Ex vivo inhibition of KRAS G12C mutant in human MIAPaCa2 cells xenografted in nude-Fox1nu mouse assessed as target engagement in tumor at 30 to 100 mg/kg, ip administered once daily for 5 days measured 3 to 24 hrs post dose relative to control; format: functional; design: scale not given: the % may be the effect or the level left
[24] = Plasma concentration in CD-1 mouse at 100 mg/kg, ip measured after 0.5 hrs; format: ADME, organism-based
Mus musculus [25] = assay: Ex vivo inhibition of KRAS G12C mutant in human MIAPaCa2 cells xenografted in nude-Fox1nu mouse assessed as target engagement in tumor at 30 to 100 mg/kg, ip administered once daily for 1 day measured 3 to 24 hrs post dose relative to control; format: functional; design: scale not given: the % may be the effect or the level left
[26] = Plasma concentration in CD-1 mouse at 50 mg/kg, ip measured after 3 hrs; format: ADME, organism-based
[27] = Protein binding in CD-1 mouse plasma at 1 uM by equilibrium dialysis method; format: ADME, cell-free; conditions: read-out: PPB (converted)
[28] = Plasma concentration in CD-1 mouse at 100 mg/kg, ip measured after 3 hrs; format: ADME, organism-based

Chain of GTPase KRas (Homo sapiens), P01116 [G12C] (P01116 whole entry G12C): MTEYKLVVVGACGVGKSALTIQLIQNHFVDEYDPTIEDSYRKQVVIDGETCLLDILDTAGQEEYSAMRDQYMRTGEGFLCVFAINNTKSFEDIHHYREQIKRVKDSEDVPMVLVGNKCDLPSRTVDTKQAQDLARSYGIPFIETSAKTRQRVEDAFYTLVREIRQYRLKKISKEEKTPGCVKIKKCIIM
Chain of GTPase KRas (P01116 whole entry G12C): as above

Compound: C=CC(=O)N1CCN(c2ncnc3c2CCN(c2cccc4ccccc24)C3)CC1
- IC50 (GTPase KRas): > 16 µM
- Activity [1]: 13%

Compound: C=CC(=O)N1CCN(c2ncnc3c2CCN(c2cc(O)cc4ccccc24)C3)CC1
- IC50 (GTPase KRas): 7.6 µM
- Activity [1]: 99%
- Activity [2]: 8%

Compound: C=CC(=O)N1CCN(c2nc(O[C@@H](C)CN(C)C)nc3c2CCN(c2cc(O)cc4ccccc24)C3)CC1
- IC50 (GTPase KRas): 0.54 µM
- Activity [2]: 21%

Compound: C=CC(=O)N1CCN(c2nc(OC[C@@H]3CCCN3C)nc3c2CCN(c2cc(O)cc4ccccc24)C3)CC1
- concentration at 0.5 h [3]: 8300 ng/mL
- Tmax [4]: 60 min
- AUC(0-inf) [5]: 880 ng·h/mL
- half-life [6]: 57.6 min
- concentration at 1 h [7]: 970 ng/mL
- Activity (MIA PaCa-2 [8]): Active
- Activity [9]: Non-Toxic
- Activity [10]: Non-Toxic
- Cmax [11]: 590 ng/mL
- Activity (MIA PaCa-2 [12]): Active
- Cp [13]: Bld
- Papp B→A at 1 µM (MDR1 [14]): 37 ×10⁻⁶ cm/s
- bioavailability [15]: 2.4%
- concentration at 0.5 h [16]: 1500 ng/mL
- Vd [17]: 0.53 L/kg
- concentration at 1 h [18]: 17000 ng/mL
- Papp A→B at 1 µM (MDR1 [19]): 1.4 ×10⁻⁶ cm/s
- clearance [20]: 46 mL/min/kg
- concentration at 1 h [21]: 2600 ng/mL
- concentration at 6 h [22]: 1300 ng/mL
- Activity (Mus musculus [23]): >65%
- concentration at 0.5 h [24]: 26000 ng/mL
- Activity (Mus musculus [25]): >65%
- concentration at 3 h [26]: 250 ng/mL
- fraction unbound at 1 µM [27]: 0.05
- concentration at 3 h [28]: 1400 ng/mL
- Activity [2]: 84%

Compound: C=CC(=O)N1CCN(c2ncnc3c2CCN(c2c(O)cccc2F)C3)CC1
- IC50 (GTPase KRas): > 16 µM
- Activity [1]: 2%

Compound: C=CC(=O)N1CCN(c2ncnc3c2CCN(c2c(C)ccc4[nH]ncc24)C3)CC1
- IC50 (GTPase KRas): > 16 µM
- Activity [1]: 22%

Compound: C=CC(=O)N1CCN(c2nc(OCCN(C)C)nc3c2CCN(c2cc(O)cc4ccccc24)C3)CC1
- IC50 (GTPase KRas): 1.9 µM
- Activity [2]: 52%

Compound: C=CC(=O)N1CCN(c2ncnc3c2CCN(c2cc(O)ccc2F)C3)CC1
- IC50 (GTPase KRas): > 16 µM
- Activity [1]: 2%

Compound: C=CC(=O)N1CCN(c2ncnc3c2CCN(c2cccc4ccc(O)cc24)C3)CC1
- IC50 (GTPase KRas): > 16 µM
- Activity [1]: 0%

Compound: C=CC(=O)N1CCN(c2nc(OCCCN(C)C)nc3c2CCN(c2cc(O)cc4ccccc24)C3)CC1
- IC50 (GTPase KRas): 1.5 µM
- Activity [2]: 22%
